Experimental data from patent publication US8802597B2, “Herbicidal pyrimidines” (E I du Pont de Nemours and Company, priority 2003, dated 2014).
Read-outs that look alike come from different tables or passages of the source.

Columns and labels:
Assay type in all cases: in vivo
[1] = test system: morningglory (Ipomoea coccinea); assay: Test B pre/postemergence; conditions: Ipomoea; for pest or weed control at 62 g/ha: 62 g ai/ha; for pest or weed control at 250 g/ha: 250 g ai/ha
How it was run: (§1)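 Pre: compound (non-phytotoxic solvent + surfactant) applied to freshly planted seeds. Post: same formulation sprayed on 2–18 cm plants, 1- to 4-leaf. Readout: visual control rating 0–100 vs controls, 13–15 d, greenhouse.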

[2] = test system: wheat (Triticum aestivum); assay: Test B pre/postemergence; conditions: Triticum aestivum; for plant injury at 62 g/ha: 62 g ai/ha; for plant injury at 250 g/ha: 250 g ai/ha
How it was run: as §1

[3] = test system: pigweed (Amaranthus retroflexus); assay: Test B pre/postemergence; conditions: Amaranthus retroflexus; for pest or weed control at 62 g/ha: 62 g ai/ha; for pest or weed control at 250 g/ha: 250 g ai/ha
How it was run: as §1

[4] = test system: lambsquarters (Chenopodium album); assay: Test B pre/postemergence; conditions: Chenopodium album; for pest or weed control at 62 g/ha: 62 g ai/ha; for pest or weed control at 250 g/ha: 250 g ai/ha
How it was run: as §1

[5] = test system: Surinam grass (Brachiaria decumbens); assay: Test B pre/postemergence; conditions: Urochloa decumbens; for pest or weed control at 62 g/ha: 62 g ai/ha; for pest or weed control at 250 g/ha: 250 g ai/ha
How it was run: as §1

[6] = test system: cocklebur (Xanthium strumarium); assay: Test B pre/postemergence; conditions: Xanthium strumarium; for pest or weed control at 62 g/ha: 62 g ai/ha; for pest or weed control at 250 g/ha: 250 g ai/ha
How it was run: as §1

[7] = test system: crabgrass (Digitaria sanguinalis); assay: Test B pre/postemergence; conditions: Digitaria sanguinalis; for pest or weed control at 62 g/ha: 62 g ai/ha; for pest or weed control at 250 g/ha: 250 g ai/ha
How it was run: as §1

corn (Zea mays) = assay: Test B pre/postemergence; conditions: Zea mays; for Corn plant response rating (crop injury, 0 = no effect, 100 = complete kill) at 250 g/ha: 250 g ai/ha
How it was run: as §1

[8] = test system: giant foxtail (Setaria faberii); assay: Test B pre/postemergence; conditions: Setaria faberi; for pest or weed control at 62 g/ha: 62 g ai/ha; for pest or weed control at 250 g/ha: 250 g ai/ha
How it was run: as §1

[9] = test system: barnyardgrass (Echinochloa crus-galli); assay: Test B pre/postemergence; conditions: Echinochloa crus-galli; for pest or weed control at 62 g/ha: 62 g ai/ha; for pest or weed control at 250 g/ha: 250 g ai/ha
How it was run: as §1

[10] = test system: velvetleaf (Abutilon theophrasti); assay: Test B pre/postemergence; conditions: Abutilon theophrasti; for pest or weed control at 62 g/ha: 62 g ai/ha; for pest or weed control at 250 g/ha: 250 g ai/ha
How it was run: as §1

[11] = test system: umbrella sedge (Cyperus difformis); assay: Test B flooded paddy test; conditions: Cyperus difformis, Flood, 1000 g ai/ha; scale 0 to 100; read-out: Plant response rating, Sedge, Umbrella
How it was run: (§2)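 Rice, umbrella sedge, duck salad and barnyardgrass grown to 2-leaf stage under flooded paddy conditions and treated with formulated test chemicals. Kept in greenhouse 13–15 days, then visually rated against untreated controls on a 0–100 scale (0 no effect, 100 complete control).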

[12] = test system: duck salad (Heteranthera limosa); assay: Test B flooded paddy test; conditions: Heteranthera limosa, Flood, 1000 g ai/ha; scale 0 to 100; read-out: Plant response rating, Ducksalad
How it was run: as §2

[13] = test system: barnyardgrass (Echinochloa crus-galli); assay: Test B flooded paddy test; conditions: Echinochloa crus-galli, Flood, 1000 g ai/ha; scale 0 (no effect) to 100 (complete control); read-out: Plant response rating, Barnyardgrass
How it was run: as §2

rice (Oryza sativa) = assay: Test B flooded paddy test; conditions: Oryza sativa, Flood, 1000 g ai/ha; scale 0 to 100; read-out: Plant response rating, Rice
How it was run: as §2

wild oat (Avena fatua) = assay: Test B postemergence; conditions: Avena fatua, post-emergence
How it was run: as §1

[14] = test system: blackgrass (Alopecurus myosuroides); assay: Test B postemergence; conditions: Alopecurus myosuroides, post-emergence
How it was run: as §1

[15] = pre-emergence, Preemergence, scale 0 to 100 (0 no effect, 100 complete control), read-out: Plant response rating, Wheat
[16] = pre-emergence, Preemergence, scale 0 to 100 (0 no effect, 100 complete control), read-out: Plant response rating, Barnyardgrass

CCOC(=O)c1nc(C2CC2)nc(N)c1Cl [Compound 4, ethyl 6-amino-5-chloro-2-cyclopropyl-4-pyrimidinecarboxylate]
pest or weed control at 62 g/ha ([1]; post-emergence, Postemergence, scale 0 to 100 (0 no effect, 100 complete control), read-out: Morningglory plant response rating): 90%
pest or weed control at 250 g/ha ([1]; post-emergence, Postemergence, scale 0 to 100, read-out: Plant response rating, Morningglory): 100%
pest or weed control at 62 g/ha ([1]; pre-emergence, Preemergence, scale 0 to 100, 0 no effect, 100 complete control, read-out: Plant response rating, Morningglory): 60%
pest or weed control at 250 g/ha ([1]; pre-emergence, Preemergence, scale 0 to 100 (0 no effect, 100 complete control), read-out: Plant response rating, Morningglory): 100%
plant injury at 62 g/ha ([2]; post-emergence, Postemergence, scale 0 to 100 (0 no effect, 100 complete control), read-out: Wheat plant response rating): 40%
plant injury at 250 g/ha ([2]; post-emergence, Postemergence, scale 0 to 100, read-out: Plant response rating, Wheat): 80%
plant injury at 62 g/ha [2, 15]: 50%
plant injury at 250 g/ha [2, 15]: 70%
pest or weed control at 62 g/ha ([3]; post-emergence, Postemergence, scale 0 to 100 (0 no effect, 100 complete control), read-out: Pigweed plant response rating): 100%
pest or weed control at 250 g/ha ([3]; post-emergence, Postemergence, scale 0 to 100, read-out: Plant response rating, Pigweed): 100%
pest or weed control at 62 g/ha ([3]; pre-emergence, Preemergence, scale 0 to 100, 0 no effect, 100 complete control, read-out: Plant response rating, Pigweed): 90%
pest or weed control at 250 g/ha ([3]; pre-emergence, Preemergence, scale 0 to 100 (0 no effect, 100 complete control), read-out: Plant response rating, Pigweed): 100%
pest or weed control at 62 g/ha ([4]; post-emergence, Postemergence, scale 0 to 100 (0 no effect, 100 complete control), read-out: Lambsquarters plant response rating): 100%
pest or weed control at 250 g/ha ([4]; post-emergence, Postemergence, scale 0 to 100, read-out: Plant response rating, Lambsquarters): 100%
pest or weed control at 62 g/ha ([4]; pre-emergence, Preemergence, scale 0 to 100, 0 no effect, 100 complete control, read-out: Plant response rating, Lambsquarters): 90%
pest or weed control at 250 g/ha ([4]; pre-emergence, Preemergence, scale 0 to 100 (0 no effect, 100 complete control), read-out: Plant response rating, Lambsquarters): 100%
pest or weed control at 62 g/ha ([5]; post-emergence, Postemergence, scale 0 to 100 (0 no effect, 100 complete control), read-out: Surinam Grass plant response rating): 90%
pest or weed control at 250 g/ha ([5]; post-emergence, Postemergence, scale 0 to 100, read-out: Plant response rating, Surinam Grass): 90%
pest or weed control at 250 g/ha ([5]; pre-emergence, Preemergence, scale 0 to 100 (0 no effect, 100 complete control), read-out: Plant response rating, Surinam Grass): 90%
pest or weed control at 62 g/ha ([5]; pre-emergence, Preemergence, scale 0 to 100, 0 no effect, 100 complete control, read-out: Plant response rating, Surinam Grass): 40%
pest or weed control at 62 g/ha ([6]; post-emergence, Postemergence, scale 0 to 100 (0 no effect, 100 complete control), read-out: Cocklebur plant response rating): 90%
pest or weed control at 250 g/ha ([6]; post-emergence, Postemergence, scale 0 to 100, read-out: Plant response rating, Cocklebur): 100%
pest or weed control at 62 g/ha ([6]; pre-emergence, Preemergence, scale 0 to 100, 0 no effect, 100 complete control, read-out: Plant response rating, Cocklebur): 80%
pest or weed control at 250 g/ha ([6]; pre-emergence, Preemergence, scale 0 to 100 (0 no effect, 100 complete control), read-out: Plant response rating, Cocklebur): 100%
pest or weed control at 62 g/ha ([7]; post-emergence, Postemergence, scale 0 to 100 (0 no effect, 100 complete control), read-out: Crabgrass plant response rating): 80%
pest or weed control at 250 g/ha ([7]; post-emergence, Postemergence, scale 0 to 100, read-out: Plant response rating, Crabgrass): 90%
pest or weed control at 62 g/ha ([7]; pre-emergence, Preemergence, scale 0 to 100, 0 no effect, 100 complete control, read-out: Plant response rating, Crabgrass): 70%
pest or weed control at 250 g/ha ([7]; pre-emergence, Preemergence, scale 0 to 100 (0 no effect, 100 complete control), read-out: Plant response rating, Crabgrass): 90%
plant injury at 62 g/ha (corn (Zea mays); post-emergence, Postemergence, 62 g ai/ha, scale 0 to 100 (0 no effect, 100 complete control), read-out: Corn plant response rating): 50%
Corn plant response rating (crop injury, 0 = no effect, 100 = complete kill) at 250 g/ha (corn (Zea mays); post-emergence, Postemergence, scale 0 to 100): 90%
Corn plant response rating (crop injury, 0 = no effect, 100 = complete kill) at 62 g/ha (corn (Zea mays); pre-emergence, Preemergence, 62 g ai/ha, scale 0 to 100, 0 no effect, 100 complete control): 0%
Corn plant response rating (crop injury, 0 = no effect, 100 = complete kill) at 250 g/ha (corn (Zea mays); pre-emergence, Preemergence, scale 0 to 100 (0 no effect, 100 complete control)): 80%
pest or weed control at 62 g/ha ([8]; post-emergence, Postemergence, scale 0 to 100 (0 no effect, 100 complete control), read-out: Foxtail, Giant plant response rating): 80%
pest or weed control at 250 g/ha ([8]; post-emergence, Postemergence, scale 0 to 100, read-out: Plant response rating, Foxtail, Giant): 90%
pest or weed control at 250 g/ha ([8]; pre-emergence, Preemergence, scale 0 to 100 (0 no effect, 100 complete control), read-out: Plant response rating, Foxtail, Giant): 80%
pest or weed control at 62 g/ha ([8]; pre-emergence, Preemergence, scale 0 to 100, 0 no effect, 100 complete control, read-out: Plant response rating, Foxtail, Giant): 10%
pest or weed control at 62 g/ha ([9]; post-emergence, Postemergence, scale 0 to 100 (0 no effect, 100 complete control), read-out: Barnyardgrass plant response rating): 70%
pest or weed control at 250 g/ha ([9]; post-emergence, Postemergence, scale 0 to 100, read-out: Plant response rating, Barnyardgrass): 90%
pest or weed control at 62 g/ha [9, 16]: 30%
pest or weed control at 250 g/ha [9, 16]: 90%
pest or weed control at 62 g/ha ([10]; post-emergence, Postemergence, scale 0 to 100 (0 no effect, 100 complete control), read-out: Velvetleaf plant response rating): 70%
pest or weed control at 250 g/ha ([10]; post-emergence, Postemergence, scale 0 to 100, read-out: Plant response rating, Velvetleaf): 100%
pest or weed control at 62 g/ha ([10]; pre-emergence, Preemergence, scale 0 to 100, 0 no effect, 100 complete control, read-out: Plant response rating, Velvetleaf): 80%
pest or weed control at 250 g/ha ([10]; pre-emergence, Preemergence, scale 0 to 100 (0 no effect, 100 complete control), read-out: Plant response rating, Velvetleaf): 90%
pest or weed control at 1000 g/ha [11]: 80%
pest or weed control at 1000 g/ha [12]: 100%
pest or weed control at 1000 g/ha [13]: 90%
plant injury at 1000 g/ha (rice (Oryza sativa)): 80%
pest or weed control at 62 g/ha (wild oat (Avena fatua); 62 g ai/ha, scale 0 to 100 (0 no effect, 100 complete control), read-out: Oat, Wild plant response rating): 50%
pest or weed control at 250 g/ha (wild oat (Avena fatua); 250 g ai/ha, scale 0 to 100, read-out: Plant response rating, Oat, Wild): 80%
pest or weed control at 62 g/ha ([14]; 62 g ai/ha, scale 0 to 100 (0 no effect, 100 complete control), read-out: Blackgrass plant response rating): 70%
pest or weed control at 250 g/ha ([14]; 250 g ai/ha, scale 0 to 100, read-out: Plant response rating, Blackgrass): 90%
